# Paper PMC7560154, “Novel Antimicrobial Peptide from Temporin L in The Treatment of Staphylococcus pseudintermedius and Malassezia pachydermatis in Polymicrobial Inter-Kingdom Infection” (Antibiotics, 2020)
# Where a SMILES comes first, the peptide text is derived from it. [ ]: non-standard residue; d: D form.
# Legend:
# M. pachydermatis = assay: Resistance acquisition test (serial subculture with sublethal peptide 8); type: cell-based, Malassezia pachydermatis
# Procedure: To evaluate if the yeast acquired resistance to the drug, after a continued treatment, M. pachydermatis was subcultured with a sub lethal concentration of peptide 8 (1/2 MIC). Briefly, a final 3.12 μM peptide 8 concentration was added to yeast inoculum suspension equivalent to 1–3 × 10^6 CFU/mL in Sabouraud dextrose broth (SB) and incubated 72 h at 30 °C (inoculum 1). After this period, optical density was measured and a new yeast subculture with 3.12 μM of peptide 8 was prepared starting from inoculum 1 (inoculum 2). Three days after, optical density was again recorded and a new inoculum in presence of peptide 8 prepared. This was repeated until evident yeast death was observed.
# MRSP = assay: Time-kill assay, MRSP; type: cell-based, Staphylococcus pseudintermedius
# Procedure: Time kill assay was carried out as previously described. […] Plates were incubated at 37 °C on an orbital shaker at 120 rpm. Viability assessments were performed at 0, 2, 4, 6 and 24 h by plating 0.01 mL undiluted and 10-fold serially diluted samples onto Mueller–Hinton plates in triplicate. After overnight incubation at 37 °C, bacterial colonies were counted and compared with counts from control cultures.
# MSSP biofilm formation = assay: Biofilm formation, crystal violet assay, MSSP; type: cell-based, Staphylococcus pseudintermedius; conditions: sub-MIC 0.095 to 0.78 μM, 24 h
# Procedure: Anti-biofilm activity of peptide 8 was examined by the crystal violet assay previously described with minor modifications. Microtiter plates were inoculated with bacteria at a final density of 10^6 CFU/mL and treated with peptide 8 ranging from 0.095 to 0.78 μM. Control cells were grown in the absence of peptide 8. After 24 h incubation at 37 °C, the supernatant was gently removed, and the wells were rinsed twice with PBS. The amount of biofilm formed in the wells was measured by crystal violet staining and the absorbance of the solution was measured at 595 nm.
# MSSP mature biofilm [1] = assay: Mature biofilm biomass, crystal violet assay, MSSP; type: cell-based, Staphylococcus pseudintermedius; conditions: MSSP one-day-old biofilm, up to 25 μM, 24 h
# Procedure: Biofilms were allowed to form in each well of a 96-well microtiter plate, as described by Stepanovic. After 24 h, planktonic cells were aspirated, and the plates were washed with 200 μL of PBS. Cells biofilms were exposed to 200 μL of peptide 8 at the final concentration ranging from 6.25 to 25 μM and the plate was further incubated for 24 h at 37 °C. Positive controls were non-treated cells incubated with 200 μL of medium broth. At the end of the experiment crystal violet-staining was performed to assess biofilm mass.
# MSSP mature biofilm [2] = assay: Mature biofilm metabolic activity, XTT assay, MSSP; type: cell-based, Staphylococcus pseudintermedius; conditions: 24 h
# Procedure: The metabolic activity of MSSP and MRSP mature biofilms was quantified by the XTT [2,3-bis(2-methyloxy-4-nitro-5-sulfophenyl)-2H-tetrazolium-5-carboxanilide] (Roche Diagnostics, Germany) reduction assay. The assay was conducted as previously described with some modifications. XTT (150 µL) was added to biofilms in each well and the plates were incubated for 40 min at 37 °C in the dark. The reduction of the tetrazolium salt by cellular dehydrogenase into orange formazan dye was photometrically measured at 490 nm. The medium was set as negative control. Viability values for each well were compared to controls.
# MRSP mature biofilm = assay: Confocal laser scanning microscopy of mature biofilm (LIVE/DEAD); type: cell-based, Staphylococcus pseudintermedius; conditions: MRSP 1-day-old biofilm, 24 h; 12.5 μM in method, 32 μg/mL in Figure 4 legend
# Procedure: CLSM was used to confirm the effect of peptide 8 on mature biofilm respect the controls. MSRP were grown in chambered cover glass (μ Slide 4 well; ibidi GmbH, Germany) in a static condition for 24 h. Peptide 8 was added on a 1-day-old biofilm at 12.5 μM. Bacterial suspensions incubated with medium alone were used as a positive control. After 24 h, biofilms were rinsed with PBS and stained by using a LIVE/DEAD® BacLight Bacteria Viability stains (Life Technologies, Italy). After the staining, the images were observed using a LSM 700 inverted confocal laser-scanning microscope (Zeiss, Italy). The areas were scanned using a 10X objective lens with the signal recorded in the green channel for Syto9 (excitation 488 nm, emission 500–525 nm) and in red channel for PI (excitation 500–550 nm, emission 610–650 nm).
# mecA gene expression = mecA gene expression by RT-PCR; type: cell-based, Staphylococcus pseudintermedius
# Procedure: The reaction was carried out in a DNA thermal cycler (MyCycler, Bio-Rad, Hercules, CA, USA). The PCR products were analysed by electrophoresis on 1.8% agarose gel in TBE and analysed on a Gel Doc EZ System (Bio-Rad, Hercules, CA, USA). RNA extraction was performed by using GenUp Total RNA kit (BiotechRabbit, Berlin, Germany) according to the manufacturer’s instructions. Five hundred nanograms of total cellular RNA were reverse-transcribed (RevertUP II Reverse Transcriptase, BiotechRabbit, Berlin, Germany) into cDNA using random hexamer primers (Random hexamer, Roche Diagnostics, Mannheim, Germany) at 48 °C for 60 min according to the manufacturer’s instructions. RT-PCR was carried out using 2 μL of cDNA, as reported above. Quantification data were normalized to the reference gene for 16S rRNA gene and analyzed by Image Lab software 5.2.1 (Bio-Rad, Hercules, CA, USA).
# circulating blood cells = conditions: cited from earlier work
# [3] = in vivo model of acute inflammation; cited from earlier work
smiles,measurement,setting,value
CC[C@H](C)[C@H](NC(=O)[C@H](CCCNC(=N)N)NC(=O)[C@@H](CCCCN)NC(=O)[C@@H](CC(C)C)NC(=O)[C@H](Cc1ccccc1)NC(=O)[C@H](CCCCN)NC(=O)[C@H](CO)NC(=O)[C@H](Cc1ccccc1)NC(=O)[C@H](Cc1c[nH]c2ccccc12)NC(=O)[C@@H]1CCCN1C(=O)[C@@H](NC(=O)[C@@H](N)Cc1ccccc1)C(C)C)C(=O)N[C@@H](CC(C)C)C(N)=O [Peptide 8] (H-FVPWFSKF[dL][dK]RIL-NH2; N-terminus assumed),Log10 CFU/Ml After 15 Generation Subcultures Including TL48,"M. pachydermatis; 3.12 μM (1/2 MIC), 15 subcultures (about 2 months), three independent experiments in triplicate",2.10 ± 0.12 Log10 CFU/Ml
same,Log10 CFU/Ml After 1 Generation Subculture Including TL48,"M. pachydermatis; 3.12 μM (1/2 MIC), Sabouraud dextrose broth, 72 h at 30 °C per subculture, three independent experiments in triplicate",5.80 ± 0.25 Log10 CFU/Ml
same,Acquisition of resistance after prolonged treatment,M. pachydermatis; 2 months of repeated sublethal concentration treatment,did not acquire resistance
same,Log10CFU/mL 0 h,"MRSP; peptide at MIC value (6.25 μM), 37 °C, 0 h, three independent experiments in triplicate",5.30 ± 0.18 Log10CFU/mL
same,Log10CFU/mL 1 h,"MRSP; peptide at MIC value (6.25 μM), 1 h",2.47 ± 0.18 Log10CFU/mL
same,Log10CFU/mL 2 h,"MRSP; peptide at MIC value (6.25 μM), 2 h",2.38 ± 0.19 Log10CFU/mL
same,Log10CFU/mL 4 h,"MRSP; peptide at MIC value (6.25 μM), 4 h",1.30 ± 0.21 Log10CFU/mL
same,Log10CFU/mL 6 h,"MRSP; peptide at MIC value (6.25 μM), 6 h",0.77 ± 0.12 Log10CFU/mL
same,Log10CFU/mL 24 h,"MRSP; peptide at MIC value (6.25 μM), 24 h",4.86 ± 0.28 Log10CFU/mL
same,Bactericidal or bacteriostatic activity,MRSP; time-kill at MIC value,bacteriostatic
same,Effect on biofilm formation,MSSP biofilm formation,ineffective
same,Effect on mature biofilm biomass,MSSP mature biofilm [1],did not affect the biomass
same,Reduction of biofilm viability,MSSP mature biofilm [2]; 12.5 μM,38%
same,Effect on biofilm viability at 25 μM,MSSP mature biofilm [2]; 25 μM,reduced effect
same,Effect on cells within mature biofilm (LIVE/DEAD staining),MRSP mature biofilm,killed or damaged
same,Regulation of mecA gene expression,mecA gene expression,did not regulate mecA gene expression
same,Hemolytic activity,circulating blood cells,did not show hemolytic activity
same,Anti-inflammatory activity,[3],potent anti-inflammatory activity
